Earlier results on one molecule are cited in patent US7803735B2, “Hydroconversion processes employing multi-metallic catalysts and method for making thereof” (Chevron U.S.A. Inc., priority 2007, dated 2010).

The data set relates to rats. The following applies: single oral dose to rats; chelating agent (ligand) L.

For orientation: LD50 means the dose at which mortality reaches 50%. As for `O=CC(=O)O` [glyoxylic], the median lethal dose (LD50) is on record as 3000 mg/kg.
